Reference: patent publication US8846713B2, “Fused heterocyclic compounds as phosphodiesterases (PDEs) inhibitors” (Takeda Pharmaceutical Company Limited, priority 2010, dated 2014)
Counter-ions that a name gives are not always drawn.

Tests used:
Human PDE10A enzyme = target: T1, Human PDE10A enzyme (Homo sapiens, UniProt Q9Y233); test: PDE enzyme inhibition, SPA (Scintillation Proximity Assay) with [3H]cGMP; type: biochemical; conditions: [3H]cGMP substrate; for inhibition at 1 µM: compound 1 μM, read-out: Percent inhibition (1 μM); for inhibition at 10 µM: compound 10 μM, read-out: Percent inhibition (10 μM); for inhibition at 0.1 µM: compound 0.1 μM, read-out: Percent inhibition (0.1 μM)
T1 construct: transfected with the full-length gene; His-tag; made in house; host or cells: Sf9 or COS-7 cells
Method: Human PDE10A enzyme was generated from Sf9 or COS-7 cells transfected with the full-length gene. Cloned enzyme was extracted from homogenized cell pellets. The extracted enzyme from sf9 cells was partially purified using His-tag affinity column. The enzyme was stored at −70° C. until use. PDE activity was measured using a SPA (Scintillation Proximity Assay) (GE Healthcare). To evaluate the inhibitory activity, 10 μL of serial diluted compounds were incubated with 20 μL of PDE enzyme in assay buffer (50 mM HEPES-NaOH, 8.3 mM MgCl2, 1.7 mM EGTA, 0.1% BSA (pH 7.4)) for 30 min. at room temperature. Final concentration of DMSO in the assay was 1 percent as compounds were tested in duplicate in 96-well half-area plates (Corning). To start the reaction, 10 μL of substrate [^3H] cGMP (25 or 50 nM; enclosed in SPA kits from GE Healthcare or purchased from PerkinElmer, respectively) was added for a final assay volume of 40 μL. After 60 min incubation at room temperature, yttrium SPA beads containing Zinc sulphate were added (20 μL at 6 mg/mL) to terminate the PDE reaction. After being settled for 60 min, assay plates were counted in a scintillation counter (PerkinElmer) to allow calculation of inhibition rate. Inhibition rate was calculated on the basis of 0% control wells with DMSO and 100% control wells without enzyme.

T1 sequence (Q9Y233 267-1055): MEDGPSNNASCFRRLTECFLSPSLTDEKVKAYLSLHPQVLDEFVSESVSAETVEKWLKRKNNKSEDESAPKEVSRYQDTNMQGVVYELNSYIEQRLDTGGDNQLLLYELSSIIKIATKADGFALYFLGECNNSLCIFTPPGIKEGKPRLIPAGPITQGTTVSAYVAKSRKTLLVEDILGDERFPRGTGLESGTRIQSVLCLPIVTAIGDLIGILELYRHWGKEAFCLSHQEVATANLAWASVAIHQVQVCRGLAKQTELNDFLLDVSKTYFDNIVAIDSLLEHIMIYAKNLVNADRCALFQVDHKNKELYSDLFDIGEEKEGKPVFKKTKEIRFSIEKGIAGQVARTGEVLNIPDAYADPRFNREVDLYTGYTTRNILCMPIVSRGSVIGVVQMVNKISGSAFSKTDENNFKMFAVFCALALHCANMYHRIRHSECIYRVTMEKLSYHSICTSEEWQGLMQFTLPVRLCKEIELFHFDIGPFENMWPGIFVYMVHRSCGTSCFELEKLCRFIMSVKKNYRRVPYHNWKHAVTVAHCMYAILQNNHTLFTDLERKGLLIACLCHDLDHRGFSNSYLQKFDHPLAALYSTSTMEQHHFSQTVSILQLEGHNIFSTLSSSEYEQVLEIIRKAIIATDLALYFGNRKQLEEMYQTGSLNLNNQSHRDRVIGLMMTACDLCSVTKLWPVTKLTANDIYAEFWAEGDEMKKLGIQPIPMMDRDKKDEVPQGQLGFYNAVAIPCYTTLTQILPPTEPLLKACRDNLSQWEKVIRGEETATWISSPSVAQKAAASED

melting point [°C]	inhibition at 1 µM (Human PDE10A enzyme) [%]	inhibition at 10 µM (Human PDE10A enzyme) [%]	inhibition at 0.1 µM (Human PDE10A enzyme) [%]	SMILES
197 to 198	99	103		CCn1c(=O)n(-c2ccc(Oc3nc4cccnc4n3C)cc2)c2ncc(OC)cc21 [Example 119, 1-ethyl-6-methoxy-3-{4-[(3-methyl-3H-imidazo[4,5-b]pyridin-2-yl)oxy]phenyl}-1,3-dihydro-2H-imidazo[4,5-b]pyridin-2-one]
195 to 197	101	101		CCn1c(=O)n(-c2ccc(Oc3nc4cccnc4n3C)cc2)c2ncc(OC(F)F)cc21 [Example 127, 6-(difluoromethoxy)-1-ethyl-3-{4-[(3-methyl-3H-imidazo[4,5-b]pyridin-2-yl)oxy]phenyl}-1,3-dihydro-2H-imidazo[4,5-b]pyridin-2-one]
242 to 243	99	101		CCn1c(=O)n(-c2ccc(Oc3nc4ccccc4n3C)cc2)c2ncncc21 [Example 125, 7-ethyl-9-{4-[(1-methyl-1H-benzimidazol-2-yl)oxy]phenyl}-7,9-dihydro-8H-purin-8-one]
244 to 246	95	98		CCn1c(=O)n(-c2ccc(Oc3nc4cccnc4n3C)cc2)c2nccc(C(F)(F)F)c21 [Example 130, 1-ethyl-3-{4-[(3-methyl-3H-imidazo[4,5-b]pyridin-2-yl)oxy]phenyl}-7-(trifluoromethyl)-1,3-dihydro-2H-imidazo[4,5-b]pyridin-2-one]
208 to 210	103	102		CCn1c(=O)n(-c2ccc(Oc3nc4ccccc4n3C)cc2)c2ncc(Cl)cc21 [Example 106, 6-chloro-1-ethyl-3-{4-[(1-methyl-1H-benzimidazol-2-yl)oxy]phenyl}-1,3-dihydro-2H-imidazo[4,5-b]pyridin-2-one]
171 to 172	94	91		CCn1c(=O)n(-c2ccc(Oc3nc4cccnc4n3C)cc2)c2ncc(OCC(F)F)cc21 [Example 128, 6-(2,2-difluoroethoxy)-1-ethyl-3-{4-[(3-methyl-3H-imidazo[4,5-b]pyridin-2-yl)oxy]phenyl}-1,3-dihydro-2H-imidazo[4,5-b]pyridin-2-one]
252	109	107		Cc1cnc2c(c1)n(C(C)C)c(=O)n2-c1ccc(Oc2nc3cccnc3n2C)cc1 [Example 122, 6-methyl-1-(1-methylethyl)-3-{4-[(3-methyl-3H-imidazo[4,5-b]pyridin-2-yl)oxy]phenyl}-1,3-dihydro-2H-imidazo[4,5-b]pyridin-2-one]
220 to 221	100	101		CCn1c(=O)n(-c2ccc(-n3ccn4c5ccccc5nc34)cc2)c2ncccc21 [Example 65, 1-Ethyl-3-[4-(1H-imidazo[1,2-a]benzimidazol-1-yl)phenyl]-1,3-dihydro-2H-imidazo[4,5-b]pyridin-2-one]
217 to 219	102	104		CCn1c(=O)n(-c2ccc(Oc3nc4cccnc4n3C)cc2)c2ncc(C)cc21 [Example 118, 1-ethyl-6-methyl-3-{4-[(3-methyl-3H-imidazo[4,5-b]pyridin-2-yl)oxy]phenyl}-1,3-dihydro-2H-imidazo[4,5-b]pyridin-2-one]
255 to 256	101	104		CCn1c(=O)n(-c2ccc(N3CCn4c3nc3cccnc34)cc2)c2ncccc21 [Example 134, 3-[4-(2,3-dihydro-1H-imidazo[2′,1′:2,3]imidazo[4,5-b]pyridin-1-yl)phenyl]-1-ethyl-1,3-dihydro-2H-imidazo[4,5-b]pyridin-2-one]
	93	105		CCn1c(=O)n(-c2ccc(Oc3nc4cccnc4n3C)cc2)c2nccc(CO)c21 [Example 138, 1-ethyl-7-(hydroxymethyl)-3-{4-[(3-methyl-3H-imidazo[4,5-b]pyridin-2-yl)oxy]phenyl}-1,3-dihydro-2H-imidazo[4,5-b]pyridin-2-one]
	96	101		CC1(C)C(=O)N(c2ccc(Oc3cn4ccccc4n3)cc2)c2ncccc21 [Example 123, 1-[4-(imidazo[1,2-a]pyridin-2-yloxy)phenyl]-3,3-dimethyl-1,3-dihydro-2H-pyrrolo[2,3-b]pyridin-2-one]
	104	110		CC(C)n1c(=O)n(-c2ccc3c(c2)CCN3c2nc3cccnc3[nH]2)c2ncccc21 [Example 72, 3-[1-(3H-imidazo[4,5-b]pyridin-2-yl)-2,3-dihydro-1H-indol-5-yl]-1-(1-methylethyl)-1,3-dihydro-2H-imidazo[4,5-b]pyridin-2-one]
			98	CCn1c(=O)n(-c2ccc(N3CCn4c3nc3ccccc34)cc2)c2ncccc21 [Example 24, 3-[4-(2,3-dihydro-1H-imidazo[1,2-a]benzimidazol-1-yl)phenyl]-1-ethyl-1,3-dihydro-2H-imidazo[4,5-b]pyridin-2-one]
184 to 186				CCn1c(=O)n(-c2ccc(Oc3nc4ccccc4n3C)cc2)c2ncccc21 [Example 19, 1-ethyl-3-{4-[(1-methyl-1H-benzimidazol-2-yl)oxy]phenyl}-1,3-dihydro-2H-imidazo[4,5-b]pyridin-2-one]
			98	CCn1c(=O)n(-c2ccc(Oc3nc4ccccc4[nH]3)cc2)c2ncccc21 [Example 8, 3-[4-(1H-benzimidazol-2-yloxy)phenyl]-1-ethyl-1,3-dihydro-2H-imidazo[4,5-b]pyridin-2-one hydrochloride]
	101	103		Cn1c(Oc2ccc(-n3c(=O)n(C4CC4)c4cccnc43)cc2)nc2ccccc21 [Example 103, 1-cyclopropyl-3-{4-[(1-methyl-1H-benzimidazol-2-yl)oxy]phenyl}-1,3-dihydro-2H-imidazo[4,5-b]pyridin-2-one]
	100	101		CCn1c(=O)n(-c2ccc(Oc3nc4ccccc4[nH]3)cc2)c2nccc(C)c21 [Example 64, 3-[4-(1H-benzimidazol-2-yloxy)phenyl]-1-ethyl-7-methyl-1,3-dihydro-2H-imidazo[4,5-b]pyridin-2-one dihydrochloride]
	93	99		CCn1c(=O)n(-c2ccc(-n3ncc4cccnc43)cc2)c2ncccc21 [Example 12, 1-Ethyl-3-[4-(1H-pyrazolo[3,4-b]pyridin-1-yl)phenyl]-1,3-dihydro-2H-imidazo[4,5-b]pyridin-2-one]
			99	Cn1c(=O)n(-c2ccc(N3CCn4c3nc3ccccc34)cc2)c2ncccc21 [Example 3, 3-[4-(2,3-dihydro-1H-imidazo[1,2-a]benzimidazol-1-yl)phenyl]-1-methyl-1,3-dihydro-2H-imidazo[4,5-b]pyridin-2-one]
	98	101		CCn1c(=O)n(-c2ccc(Oc3nc4cccnc4[nH]3)cc2)c2ncccc21 [Example 75, 1-ethyl-3-[4-(3H-imidazo[4,5-b]pyridin-2-yloxy)phenyl]-1,3-dihydro-2H-imidazo[4,5-b]pyridin-2-one]
	99	100		Cn1c(Oc2ccc(-n3c(=O)n(C(F)F)c4cccnc43)cc2)nc2ccccc21 [Example 100, 1-(difluoromethyl)-3-{4-[(1-methyl-1H-benzimidazol-2-yl)oxy]phenyl}-1,3-dihydro-2H-imidazo[4,5-b]pyridin-2-one]
	103	102		CCn1c(=O)n(-c2ccc(Oc3nc4cccnc4n3C)cc2)c2ncc(Cl)cc21 [Example 107, 6-chloro-1-ethyl-3-{4-[(3-methyl-3H-imidazo[4,5-b]pyridin-2-yl)oxy]phenyl}-1,3-dihydro-2H-imidazo[4,5-b]pyridin-2-one]
	104	103		O=c1[nH]c2cccnc2n1-c1ccc(N2CCn3c2nc2ccccc23)cc1 [Example 2, 3-[4-(2,3-dihydro-1H-imidazo[1,2-a]benzimidazol-1-yl)phenyl]-1,3-dihydro-2H-imidazo[4,5-b]pyridin-2-one]
178 to 179	89	96		CCn1c(=O)n(-c2ccc(Oc3nc4cccnc4n3C)cc2)c2ncc(OCC(F)(F)F)cc21 [Example 129, 1-ethyl-3-{4-[(3-methyl-3H-imidazo[4,5-b]pyridin-2-yl)oxy]phenyl}-6-(2,2,2-trifluoroethoxy)-1,3-dihydro-2H-imidazo[4,5-b]pyridin-2-one]
270 to 271	103	99		Cc1ccnc2c1n(C(C)C)c(=O)n2-c1ccc(Oc2nc3cccnc3n2C)cc1 [Example 121, 7-methyl-1-(1-methylethyl)-3-{4-[(3-methyl-3H-imidazo[4,5-b]pyridin-2-yl)oxy]phenyl}-1,3-dihydro-2H-imidazo[4,5-b]pyridin-2-one]
